From article PMC11249646, “Small-Molecule Disruptors of the Interaction between Calcium- and Integrin-Binding Protein 1 and Integrin αIIbβ3 as Novel Antiplatelet Agents” (ACS Pharmacology & Translational Science, 2024)
Read-outs that look alike come from different tables or passages of the source.

What was measured:
[1] = molecular target: T1, CIB1 and αIIb interaction (CIB1-GST : F-αIIb peptide) (Homo sapiens, UniProt Q99828); assay: FP assay, 1536-well qHTS format (primary and confirmatory screen); type: binding; settings: for Curve Class (confirmatory screen) / CONFIRMATORY SCREEN Curve Class: qHTS curve class
T1 construct: made in house; host or cells: BL-21 plus RIL cells (E. coli)
T1 sequence (Q99828 1-191): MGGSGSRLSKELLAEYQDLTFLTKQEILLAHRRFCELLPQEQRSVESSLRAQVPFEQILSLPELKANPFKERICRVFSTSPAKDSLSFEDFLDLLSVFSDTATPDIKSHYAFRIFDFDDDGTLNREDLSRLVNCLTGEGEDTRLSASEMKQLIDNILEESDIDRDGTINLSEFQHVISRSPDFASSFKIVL

[2] = molecular target: T2, GST-CIB1 : F-scrambled peptide (Homo sapiens, UniProt Q99828); assay: FP scrambled-peptide counter screen, 1536-well format; type: binding; settings: for Curve Class (counterscreen) / COUNTERSCREEN Curve Class: qHTS curve class; for IC50: read-out: IC50 [μM] (counterscreen)
T2 construct: made in house; host or cells: BL-21 plus RIL cells (E. coli)
T2 sequence (Q99828 1-191): T1 sequence (Q99828 1-191)

[3] = confirmatory screen, negative sign = inhibitory curve
[4] = qHTS FP screen hits, Table S2, negative = inhibition
[5] = qHTS FP screen hits, Table S2, one class per curve where COUNT > 1, negative sign = inhibitory curve
[6] = qHTS FP screen hits, Table S2, read-out: IC50
[7] = counterscreen, negative sign = inhibitory curve
[8] = Table S3, confirmatory screen, a negative sign marks inhibitory curves
[9] = Table S3, confirmatory screen, negative = inhibition
[10] = Table S3, counterscreen, a negative sign marks inhibitory curves
[11] = Table S3, counterscreen, negative = inhibition
[12] = Table S3, confirmatory screen, YES/NO call
[13] = Table S3, confirmatory screen, read-out: IC50 [μM] (confirmatory screen)
[14] = qHTS primary screen hits, Table S2, negative = inhibition
[15] = qHTS primary screen hits, Table S2, negative sign = inhibitory curve, several classes where COUNT > 1
[16] = qHTS primary screen hits, Table S2, read-out: IC50
[17] = confirmatory screen, read-out: IC50 [μM] (confirmatory screen)

SMILES	Efficacy (%) (confirmatory screen) ([1]; confirmatory screen)	Confirm? (confirmatory screen) ([1]; confirmatory screen, YES/NO)	Curve Class (confirmatory screen) [1, 3]	Efficacy (%) [1, 4]	Curve Class [1, 5]	IC50 [1, 6]	Efficacy (%) (counterscreen) ([2]; counterscreen)	Curve Class (counterscreen) [2, 7]	Curve Class (confirmatory screen) [1, 8]	Efficacy (%) (confirmatory screen) [1, 9]	Curve Class (counterscreen) [2, 10]	Efficacy (%) (counterscreen) [2, 11]	IC50 ([2]; Table S3, counterscreen)	Efficacy (%) [1, 14]	Curve Class [1, 15]	IC50 [1, 16]	IC50 [1, 17]	IC50 ([2]; counterscreen)	also measured
CN1CCN([C@H]2CC[C@H](n3cc(-c4ccc(Oc5ccccc5)cc4)c4c(N)ncnc43)CC2)CC1.Cl [NCGC00370980-02]	-44%	YES	-2.2	-56%	-2.2	50.1 µM	-17%	4	–	–	–	–	–	–	–	–	–	–	Confirm? (counterscreen) ([2]; counterscreen, YES/NO): YES
COC(=O)c1ccc(O)c2ncc(-c3ccc(C(=O)NCCCN(C)C)cc3)cc12.O=C(O)C(F)(F)F [NCGC00189510-01]	–	–	–	-71%	-2.2	44.7 µM	–	–	4	-26%	3	226%	89.1 µM	–	–	–	–	–	–
CCCCNC(=S)N/N=C1\C(=O)Nc2ccccc21.O=C(O)C(F)(F)F [NCGC00229539-01]	–	–	–	–	–	–	–	–	-2.4	-49%	-1.2	-50%	11.2 µM	-32%	-1.2	17.8 µM	–	–	Confirm? (confirmatory screen) [1, 12]: YES; IC50 [1, 13]: 50.1 µM
C=C1C(=O)OC2C(OC(=O)C=C(C)C)C(C)=C3C(=O)C=C(C)C3C(O)C12 (stereo not shown) [NCGC00380563-01]	–	–	–	-32%	-1.2	2.5 µM	–	–	-1.2	-43%	-1.2	-47%	2.2 µM	–	–	–	–	–	Confirm? (confirmatory screen) [1, 12]: YES; IC50 [1, 13]: 2 µM
CN(C)CC1CCCN(C2CCN(C(=O)c3cccc(-c4cc(O)c5ncccc5c4)c3)CC2)C1.O=C(O)C(F)(F)F (stereo not shown) [NCGC00247737-01]	–	–	–	-45%	-1.2	22.4 µM	–	–	4	-41%	-2.2	-46%	39.8 µM	–	–	–	–	–	Confirm? (counterscreen) ([2]; Table S3, counterscreen, YES/NO call): YES
Cc1ccccc1NC(=O)CN1C(=O)N/C(=C\c2cn(-c3cccc(C(=O)O)c3)cn2)C1=O [NCGC00182400-01]	–	–	–	-24%	–	11.2 µM	–	–	4	-21%	4	-14%	–	–	–	–	–	–	–
NC(=O)c1ccc(O)c2ncccc12 [NCGC00184888-01]	–	–	–	–	–	–	–	–	–	–	–	–	–	-24%	-1.4	14.1 µM	–	–	CONFIRMATORY SCREEN Efficacy (%) ([1]; confirmatory screen): -19%; CONFIRMATORY SCREEN Curve Class ([1]; confirmatory screen): 4; COUNTERSCREEN Efficacy (%) ([2]; counterscreen): -10%; COUNTERSCREEN Curve Class ([2]; counterscreen): 4
C=C1C(OC(=O)/C(C)=C\C)[C@@]23CCC4[C@@](C)(CCC[C@@]4(C)C(=O)O)C2CC[C@H]1C3OC(C)=O (stereo partly shown) [NCGC00381205-01]	-71%	YES	-2.2	-30%	-2.2	20 µM	-31%	-1.4	–	–	–	–	–	–	–	–	31.6 µM	8.9 µM	–
COc1cc2ccccc2cc1C(=O)N/C(S)=N/c1cc(C(=O)O)ccc1C.O=C(O)C(F)(F)F [NCGC00479324-01]	–	–	–	-25%	–	12.6 µM	–	–	–	–	–	–	–	–	–	–	–	–	CONFIRMATORY SCREEN Efficacy (%) ([1]; confirmatory screen): -38%; CONFIRMATORY SCREEN Curve Class ([1]; confirmatory screen): 4; COUNTERSCREEN Efficacy (%) ([2]; counterscreen): 12%; COUNTERSCREEN Curve Class ([2]; counterscreen): 4
Cl.O=[N+]([O-])c1cccc(CNc2ccc(S(=O)(=O)Nc3nccs3)cc2)c1O [NCGC00273554-01]	-49%	YES	-2.4	–	–	–	-43%	-2.2	–	–	–	–	–	-27%	-1.4	7.1 µM	22.4 µM	50.1 µM	–
C[C@H](Cc1ccc(O)c(O)c1)[C@@H](C)Cc1ccc(O)c(O)c1 [NCGC00094201-01]	-95%	YES	-2.2	–	–	–	-68%	-1.2	–	–	–	–	–	-32%	-2.4	27.1 µM	39.8 µM	12.6 µM	–
CCN1CCN(c2cccc(Nc3nn4c(=O)c5ccccc5nc4s3)c2)CC1.Cl [NCGC00187806-01]	-38%	YES	-2.4	–	–	–	-58%	-3	–	–	–	–	–	-24%	-2.4	35.5 µM	44.7 µM	89.1 µM	–
CS(=O)(=O)c1ccc(C(=O)OCC(=O)N2CCN(CCC3CCCCC3)CC2)cc1[N+](=O)[O-].O=C(O)C(F)(F)F [NCGC00188531-01]	–	–	–	–	–	–	–	–	-3	-49%	-2.2	-50%	39.8 µM	-26%	-1.4	0.9 µM	–	–	Confirm? (confirmatory screen) [1, 12]: YES; IC50 [1, 13]: 39.8 µM
